# Assay: MALDI-TOF screening of Ni^2+ dependent hydrolysis in a combinatorial peptide library
# Format: physicochemical
# Conditions: Ni^2+ 2 mM, pH 8.2, 10 mM Tris, score=24/tm
# Procedure, shortened: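 The screen used 1 mM peptide mixtures in 10 mM Tris, pH 8.2, with 2 mM Ni2+ at two temperatures, 37 °C and 45 °C. Product appearance and substrate decline were monitored visually by MALDI-TOF over 8 h. Scores for X and Z were then summed by row and column to rank substitutions.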
# [1] = CH3CO-Gly-Ala-Thr-X-His-Z-Lys-Phe-Leu-NH2 library, 37° C.
# [2] = CH3CO-Gly-Ala-Thr-X-His-Z-Lys-Phe-Leu-NH2 library, 45° C.
# [3] = CH3CO-Gly-Ala-Ser-X-His-Z-Lys-Phe-Leu-NH2 library, 37° C.
# [4] = CH3CO-Gly-Ala-Ser-X-His-Z-Lys-Phe-Leu-NH2 library, 45° C.
Substance,hydrolysis score from MALDI-TOF screening [1],hydrolysis score from MALDI-TOF screening [2],hydrolysis score from MALDI-TOF screening [3],hydrolysis score from MALDI-TOF screening [4]
Ac-GATAHVKFL-NH2 [TAHV],0 (a score of 0 if no trace of the product of hydrolysis was seen after 8 hours of incubation),0 (a score of 0 if no trace of the product of hydrolysis was seen after 8 hours of incubation),–,–
Ac-GATKHFKFL-NH2 [TKHF],3 (a score of 3 for detection at 8 hours),6 (a score of 6 for detection at 4 hours),–,–
Ac-GASHHRKFL-NH2 [SHHR],–,–,4 (a score of 4 for detection at 6 hours),6 (a score of 6 for detection at 4 hours)
Ac-GATHHAKFL-NH2 [THHA],0 (a score of 0 if no trace of the product of hydrolysis was seen after 8 hours of incubation),4 (a score of 4 for detection at 6 hours),–,–
Ac-GASPHGKFL-NH2 [SPHG],–,–,0 (a score of 0 if no trace of the product of hydrolysis was seen after 8 hours of incubation),0 (a score of 0 if no trace of the product of hydrolysis was seen after 8 hours of incubation)
Ac-GATTHVKFL-NH2 [TTHV],0 (a score of 0 if no trace of the product of hydrolysis was seen after 8 hours of incubation),0 (a score of 0 if no trace of the product of hydrolysis was seen after 8 hours of incubation),–,–
Ac-GATHHPKFL-NH2 [THHP],0 (a score of 0 if no trace of the product of hydrolysis was seen after 8 hours of incubation),0 (a score of 0 if no trace of the product of hydrolysis was seen after 8 hours of incubation),–,–
Ac-GASLHAKFL-NH2 [SLHA],–,–,0 (a score of 0 if no trace of the product of hydrolysis was seen after 8 hours of incubation),0 (a score of 0 if no trace of the product of hydrolysis was seen after 8 hours of incubation)
Ac-GATTHWKFL-NH2 [TTHW],0 (a score of 0 if no trace of the product of hydrolysis was seen after 8 hours of incubation),0 (a score of 0 if no trace of the product of hydrolysis was seen after 8 hours of incubation),–,–
Ac-GATMHLKFL-NH2 [TMHL],0 (a score of 0 if no trace of the product of hydrolysis was seen after 8 hours of incubation),0 (a score of 0 if no trace of the product of hydrolysis was seen after 8 hours of incubation),–,–
Ac-GASVHPKFL-NH2 [SVHP],–,–,0 (a score of 0 if no trace of the product of hydrolysis was seen after 8 hours of incubation),0 (a score of 0 if no trace of the product of hydrolysis was seen after 8 hours of incubation)
Ac-GATMHFKFL-NH2 [TMHF],0 (a score of 0 if no trace of the product of hydrolysis was seen after 8 hours of incubation),0 (a score of 0 if no trace of the product of hydrolysis was seen after 8 hours of incubation),–,–
Ac-GASNHRKFL-NH2 [SNHR],–,–,6 (a score of 6 for detection at 4 hours),6 (a score of 6 for detection at 4 hours)
Ac-GASSHIKFL-NH2 [SSHI],–,–,6 (a score of 6 for detection at 4 hours),6 (a score of 6 for detection at 4 hours)
Ac-GASYHYKFL-NH2 [SYHY],–,–,3 (a score of 3 for detection at 8 hours),4 (a score of 4 for detection at 6 hours)
Ac-GASLHRKFL-NH2 [SLHR],–,–,3 (a score of 3 for detection at 8 hours),4 (a score of 4 for detection at 6 hours)
Ac-GASGHVKFL-NH2 [SGHV],–,–,0 (a score of 0 if no trace of the product of hydrolysis was seen after 8 hours of incubation),3 (a score of 3 for detection at 8 hours)
Ac-GASHHLKFL-NH2 [SHHL],–,–,6 (a score of 6 for detection at 4 hours),6 (a score of 6 for detection at 4 hours)
Ac-GASLHMKFL-NH2 [SLHM],–,–,0 (a score of 0 if no trace of the product of hydrolysis was seen after 8 hours of incubation),0 (a score of 0 if no trace of the product of hydrolysis was seen after 8 hours of incubation)
Ac-GATHHIKFL-NH2 [THHI],3 (a score of 3 for detection at 8 hours),"12 (a score of 12, if it was seen to be partially hydrolysed at 2 hours)",–,–

Substance,hydrolysis score from MALDI-TOF screening [1],hydrolysis score from MALDI-TOF screening [2],hydrolysis score from MALDI-TOF screening [3],hydrolysis score from MALDI-TOF screening [4]
Ac-GATPHPKFL-NH2 [TPHP],–,0 (a score of 0 if no trace of the product of hydrolysis was seen after 8 hours of incubation),–,–
Ac-GATQHNKFL-NH2 [TQHN],0 (a score of 0 if no trace of the product of hydrolysis was seen after 8 hours of incubation),0 (a score of 0 if no trace of the product of hydrolysis was seen after 8 hours of incubation),–,–
Ac-GATHHFKFL-NH2 [THHF],0 (a score of 0 if no trace of the product of hydrolysis was seen after 8 hours of incubation),6 (a score of 6 for detection at 4 hours),–,–
Ac-GASNHLKFL-NH2 [SNHL],–,–,4 (a score of 4 for detection at 6 hours),4 (a score of 4 for detection at 6 hours)
Ac-GASNHMKFL-NH2 [SNHM],–,–,0 (a score of 0 if no trace of the product of hydrolysis was seen after 8 hours of incubation),0 (a score of 0 if no trace of the product of hydrolysis was seen after 8 hours of incubation)
Ac-GASGHPKFL-NH2 [SGHP],–,–,0 (a score of 0 if no trace of the product of hydrolysis was seen after 8 hours of incubation),0 (a score of 0 if no trace of the product of hydrolysis was seen after 8 hours of incubation)
Ac-GATTHLKFL-NH2 [TTHL],0 (a score of 0 if no trace of the product of hydrolysis was seen after 8 hours of incubation),0 (a score of 0 if no trace of the product of hydrolysis was seen after 8 hours of incubation),–,–
Ac-GATNHGKFL-NH2 [TNHG],0 (a score of 0 if no trace of the product of hydrolysis was seen after 8 hours of incubation),0 (a score of 0 if no trace of the product of hydrolysis was seen after 8 hours of incubation),–,–
Ac-GATMHIKFL-NH2 [TMHI],0 (a score of 0 if no trace of the product of hydrolysis was seen after 8 hours of incubation),0 (a score of 0 if no trace of the product of hydrolysis was seen after 8 hours of incubation),–,–
Ac-GATYHIKFL-NH2 [TYHI],0 (a score of 0 if no trace of the product of hydrolysis was seen after 8 hours of incubation),0 (a score of 0 if no trace of the product of hydrolysis was seen after 8 hours of incubation),–,–
Ac-GASQHIKFL-NH2 [SQHI],–,–,6 (a score of 6 for detection at 4 hours),6 (a score of 6 for detection at 4 hours)
Ac-GASMHAKFL-NH2 [SMHA],–,–,0 (a score of 0 if no trace of the product of hydrolysis was seen after 8 hours of incubation),3 (a score of 3 for detection at 8 hours)
Ac-GATIHQKFL-NH2 [TIHQ],0 (a score of 0 if no trace of the product of hydrolysis was seen after 8 hours of incubation),0 (a score of 0 if no trace of the product of hydrolysis was seen after 8 hours of incubation),–,–
Ac-GASSHQKFL-NH2 [SSHQ],–,–,0 (a score of 0 if no trace of the product of hydrolysis was seen after 8 hours of incubation),0 (a score of 0 if no trace of the product of hydrolysis was seen after 8 hours of incubation)
Ac-GASVHMKFL-NH2 [SVHM],–,–,0 (a score of 0 if no trace of the product of hydrolysis was seen after 8 hours of incubation),0 (a score of 0 if no trace of the product of hydrolysis was seen after 8 hours of incubation)
Ac-GASMHFKFL-NH2 [SMHF],–,–,3 (a score of 3 for detection at 8 hours),4 (a score of 4 for detection at 6 hours)
Ac-GASKHEKFL-NH2 [SKHE],–,–,0 (a score of 0 if no trace of the product of hydrolysis was seen after 8 hours of incubation),3 (a score of 3 for detection at 8 hours)
Ac-GATAHIKFL-NH2 [TAHI],0 (a score of 0 if no trace of the product of hydrolysis was seen after 8 hours of incubation),0 (a score of 0 if no trace of the product of hydrolysis was seen after 8 hours of incubation),–,–
Ac-GATFHTKFL-NH2 [TFHT],0 (a score of 0 if no trace of the product of hydrolysis was seen after 8 hours of incubation),0 (a score of 0 if no trace of the product of hydrolysis was seen after 8 hours of incubation),–,–
Ac-GATYHKKFL-NH2 [TYHK],3 (a score of 3 for detection at 8 hours),4 (a score of 4 for detection at 6 hours),–,–

# Source: US8969516B2, “Method of hydrolysis of peptide bond” (priority 2006, dated 2015)
